What was measured:
[1] = Cytotoxicity against African green monkey BGM cells incubated for 18 hrs by neutral red assay; assay type: cell-based; conditions: chlorocebus aethiops, read-out: MLC50
Plasmodium falciparum = assay: Antiplasmodial activity against chloroquine and sulfadoxine-resistant and mefloquine-sensitive Plasmodium falciparum W2 infected in human erythrocytes by anti-HRP2 assay; assay type: functional, organism-based
[2] = Selectivity index, ratio of MLC50 for African green monkey BGM cells to IC50 for chloroquine and sulfadoxine-resistant and mefloquine-sensitive Plasmodium falciparum W2; assay type: toxicity, cell-based; conditions: read-out: Selectivity Index
Plasmodium berghei [3] = assay: Antiplasmodial activity against Plasmodium berghei NK65 infected in mouse assessed as inhibition of inhibition of parasitemia at 10 mg/kg, po treated for 3 consecutive days 24 hrs after parasite infection and measured on day 7 after inoculation by Giemsa staining based microscopy; assay type: functional
Plasmodium berghei [4] = assay: Antiplasmodial activity against Plasmodium berghei NK65 infected in mouse assessed as inhibition of inhibition of parasitemia at 10 mg/kg, po treated for 3 consecutive days 24 hrs after parasite infection and measured on day 5 after inoculation by Giemsa staining based microscopy; assay type: functional
Plasmodium berghei [5] = assay: Antiplasmodial activity against Plasmodium berghei NK65 infected in mouse assessed as inhibition of inhibition of parasitemia at 20 mg/kg, po treated for 3 consecutive days 24 hrs after parasite infection and measured on day 7 after inoculation by Giemsa staining based microscopy; assay type: functional
Plasmodium berghei [6] = assay: Antiplasmodial activity against Plasmodium berghei NK65 infected in mouse assessed as inhibition of inhibition of parasitemia at 20 mg/kg, po treated for 3 consecutive days 24 hrs after parasite infection and measured on day 5 after inoculation by Giemsa staining based microscopy; assay type: functional
Plasmodium berghei [7] = assay: Antiplasmodial activity against Plasmodium berghei NK65 infected in mouse assessed as inhibition of inhibition of parasitemia at 1 mg/kg, po treated for 3 consecutive days 24 hrs after parasite infection and measured on day 7 after inoculation by Giemsa staining based microscopy; assay type: functional
Plasmodium berghei [8] = assay: Antiplasmodial activity against Plasmodium berghei NK65 infected in mouse assessed as inhibition of inhibition of parasitemia at 1 mg/kg, po treated for 3 consecutive days 24 hrs after parasite infection and measured on day 5 after inoculation by Giemsa staining based microscopy; assay type: functional

Compound	CC50 at 18 h [1]	IC50 (Plasmodium falciparum)	selectivity ratio [2]	inhibition in vivo at 10 mg/kg (Plasmodium berghei [3])	inhibition in vivo at 10 mg/kg (Plasmodium berghei [4])	inhibition in vivo at 20 mg/kg (Plasmodium berghei [5])	inhibition in vivo at 20 mg/kg (Plasmodium berghei [6])	inhibition in vivo at 1 mg/kg (Plasmodium berghei [7])	inhibition in vivo at 1 mg/kg (Plasmodium berghei [8])
O=S(=O)(NCCNc1ccnc2cc(Cl)ccc12)c1ccc(Cl)cc1	116 µM	0.68 µM	171	–	–	–	–	–	–
O=S(=O)(NCCNc1ccnc2cc(Cl)ccc12)c1ccccc1	122 µM	1.63 µM	74.7	–	–	–	–	–	–
Cc1ccc(S(=O)(=O)NCCNc2ccnc3cc(Cl)ccc23)cc1	125 µM	0.48 µM	261	–	–	–	–	–	–
O=S(=O)(NCCNc1ccnc2cc(Cl)ccc12)c1ccc(Br)cc1	88.8 µM	1.21 µM	73.3	–	–	–	–	–	–
O=S(=O)(NCCNc1ccnc2cc(Cl)ccc12)c1ccc(F)cc1	203 µM	1.13 µM	180	–	–	–	–	–	–
O=S(=O)(NCCCNc1ccnc2cc(Cl)ccc12)c1ccccc1	275 µM	0.35 µM	784	–	–	–	–	–	–
Cc1ccc(S(=O)(=O)NCCCNc2ccnc3cc(Cl)ccc23)cc1	95 µM	0.28 µM	339	–	–	–	–	–	–
O=S(=O)(NCCCNc1ccnc2cc(Cl)ccc12)c1ccc(Cl)cc1	103 µM	0.27 µM	380	–	–	–	–	–	–
O=S(=O)(NCCCNc1ccnc2cc(Cl)ccc12)c1ccc(Br)cc1	22 µM	0.29 µM	75.8	–	–	–	–	–	–
O=S(=O)(NCCCNc1ccnc2cc(Cl)ccc12)c1ccc(F)cc1	339 µM	0.1 µM	3390	27%	47%	–	–	–	–
O=S(=O)(NCCCCNc1ccnc2cc(Cl)ccc12)c1ccccc1	> 257 µM	0.4 µM	> 642	–	–	–	–	–	–
O=S(=O)(NCCCCNc1ccnc2cc(Cl)ccc12)c1ccc(Cl)cc1	99.2 µM	0.09 µM	1100	33%	49%	–	–	–	–
O=S(=O)(NCCCCNc1ccnc2cc(Cl)ccc12)c1ccc(Br)cc1	14.9 µM	0.15 µM	99.3	–	–	–	–	–	–
O=S(=O)(NCCCCNc1ccnc2cc(Cl)ccc12)c1ccc(F)cc1	155 µM	0.15 µM	1030	7%	30%	–	–	–	–
Cc1ccc(S(=O)(=O)NCCCCNc2ccnc3cc(Cl)ccc23)cc1	107 µM	0.05 µM	2490	0%	27%	–	–	–	–
CCN(CC)CCCC(C)Nc1ccnc2cc(Cl)ccc12 (centres undefined) [CHLOROQUINE]	–	–	–	–	–	76%	93%	–	–
COc1ncnc(NS(=O)(=O)c2ccc(N)cc2)c1OC [SULFADOXINE]	> 310 µM	> 15.5 µM	–	–	–	–	–	96%	100%

Source: ChEMBL document CHEMBL3600375, “Anti-Plasmodium falciparum activity of quinoline-sulfonamide hybrids” (Bioorg Med Chem, 2015)
